Assay results reported in article PMC3784060 (Cancer Chemotherapy and Pharmacology, 2013).

Assay: phase II study in acute leukemia: toxicity (NCI CTCAE version 3.0)
Format: in vivo, human
Protocol: The study was approved by the Institutional Review Board (IRB) at each participating institution and was conducted in accordance with the Declaration of Helsinki and in compliance with International Conference on Harmonization Good Clinical Practice Guidelines. Written informed consent was obtained from all patients before study enrollment.
Each cycle lasted 21 days. Patient could continue treatment on the study in the absence of disease progression or unacceptable toxicity. The next cycle of therapy could start if non-hematologic toxicity from previous cycle recovered to ≤grade 1, and dose delay of up to 3 weeks was allowed for recovery. Permanent dose reduction was required for any ≥grade 3 clinically significant non-hematologic adverse event (70 mg/m^2 → 50 mg/m^2; 50 mg/m^2 → 40 mg/m^2; 40 mg/m^2 → 30 mg/m^2; 30 mg/m^2 → discontinue). To allow for continued treatment of subjects whose cytopenias were due to leukemia and not due to drug toxicity, subsequent cycles of treatment were allowed if absolute neutrophil count (ANC) ≥0.5 × 10^9/L or for ANC <0.5 × 10^9/L but no more than 20 % below the baseline pretreatment levels and platelet count ≥20 × 10^9/L or platelets <20 × 10^9/L but no more than 20 % below the baseline pretreatment levels. Anti-emetic prophylaxis including serotonin-receptor antagonist, metoclopramide, or prochloperazine with or without dexamethasone was allowed. […] Dexamethasone 20 mg IV was given early if symptoms of cytokine release syndrome were observed.
Response was assessed by bone marrow (BM) examination on day 21 of cycles 1 and 2, and every 6 weeks thereafter until complete remission or progressive disease (PD). Response was determined according to the revised recommendations of the International Working Group (IWG) for AML [33]. Toxicities were graded according to the National Cancer Institute Common Terminology Criteria for Adverse Events (NCI CTCAE), version 3.0 (http://ctep.cancer.gov/protocolDevelopment/electronic_applications/docs/ctcaev3.pdf). Hematologic and chemistry profiles were monitored on day 1 and 2 of each cycle or until resolution of acute toxicities and subsequently at least once a week or more frequently depending on the individual patient’s needs.

[1] = dinaciclib-related hematologic toxicity

SMILES: CCc1cnn2c(NCc3ccc[n+]([O-])c3)cc(N3CCCC[C@H]3CCO)nc12 [Dinaciclib]
- Grade ≥3 fatigue, patients (4 patients): 20%
- patients with grade ≥3 treatment-related adverse events (15 of 20 patients): 75%
- TLS-associated hyperkalemia, patients (Cairo-Bishop criteria, cycle 1): 25%
- TLS-associated hyperphosphatemia, patients (Cairo-Bishop criteria, cycle 1): 30%
- TLS-associated hyperuricemia, patients (Cairo-Bishop criteria, cycle 1): 10%
- TLS-associated hypocalcemia, patients (Cairo-Bishop criteria, cycle 1): 25%
- patients with at least one significant TLS-associated laboratory abnormality (Cairo-Bishop criteria, cycle 1): half of the patients
- Acute renal failure, All (%) (Cycle 1 n = 20): 2 (10) patients (%)
- Acute renal failure, Grade ≥3 (Cycle 1 n = 20): 2 patients
- Anorexia, All (%) (Cycle 1 n = 20): 1 (5) patients (%)
- Bacteremia, All (%) (Cycle 1 n = 20): 2 (10) patients (%)
- Bacteremia, Grade ≥3 (Cycle 1 n = 20): 2 patients
- Cytokine release sy, All (%) (Cycle 1 n = 20): 2 (10) patients (%)
- Dehydration, All (%) (Cycle 1 n = 20): 1 (5) patients (%)
- Dehydration, Grade ≥3 (Cycle 1 n = 20): 1 patients
- Diarrhea, All (%) (Cycle 1 n = 20): 14 (70) patients (%)
- Diarrhea, Grade ≥3 (Cycle 1 n = 20): 1 patients
- Fatigue, All (%) (Cycle 1 n = 20): 6 (30) patients (%)
- Fatigue, Grade ≥3 (Cycle 1 n = 20): 2 patients
- Hyperbilirubinemia, All (%) (Cycle 1 n = 20): 2 (10) patients (%)
- Hyperglycemia, All (%) (Cycle 1 n = 20): 4 (20) patients (%)
- Hyperglycemia, Grade ≥3 (Cycle 1 n = 20): 2 patients
- Hyperkalemia, All (%) (Cycle 1 n = 20): 3 (15) patients (%)
- Hyperkalemia, Grade ≥3 (Cycle 1 n = 20): 2 patients
- Hyperphosphatemia, All (%) (Cycle 1 n = 20): 5 (25) patients (%)
- Hyperphosphatemia, Grade ≥3 (Cycle 1 n = 20): 1 patients
- Hypertension, All (%) (Cycle 1 n = 20): 1 (5) patients (%)
- Hypoalbuminemia, All (%) (Cycle 1 n = 20): 4 (20) patients (%)
- Hypocalcemia, All (%) (Cycle 1 n = 20): 6 (30) patients (%)
- Hypocalcemia, Grade ≥3 (Cycle 1 n = 20): 1 patients
- Hypokalemia, All (%) (Cycle 1 n = 20): 2 (10) patients (%)
- Hyponatremia, All (%) (Cycle 1 n = 20): 2 (10) patients (%)
- Hyponatremia, Grade ≥3 (Cycle 1 n = 20): 1 patients
- Hypotension, All (%) (Cycle 1 n = 20): 6 (30) patients (%)
- Hypotension, Grade ≥3 (Cycle 1 n = 20): 1 patients
- Increased ALT, All (%) (Cycle 1 n = 20): 4 (20) patients (%)
- Increased AST, All (%) (Cycle 1 n = 20): 8 (40) patients (%)
- Increased AST, Grade ≥3 (Cycle 1 n = 20): 3 patients
- Increased LDH, All (%) (Cycle 1 n = 20): 2 (10) patients (%)
- Increased LDH, Grade ≥3 (Cycle 1 n = 20): 2 patients
- Increased creatinine, All (%) (Cycle 1 n = 20): 3 (15) patients (%)
- Increased creatinine, Grade ≥3 (Cycle 1 n = 20): 1 patients
- Nausea, All (%) (Cycle 1 n = 20): 8 (40) patients (%)
- Nausea, Grade ≥3 (Cycle 1 n = 20): 1 patients
- Pneumonia, All (%) (Cycle 1 n = 20): 2 (10) patients (%)
- Pneumonia, Grade ≥3 (Cycle 1 n = 20): 2 patients
- Sinus Tachycardia, All (%) (Cycle 1 n = 20): 2 (10) patients (%)
- Stomatitis, All (%) (Cycle 1 n = 20): 1 (5) patients (%)
- Syncope, All (%) (Cycle 1 n = 20): 1 (5) patients (%)
- Syncope, Grade ≥3 (Cycle 1 n = 20): 1 patients
- Tumor lysis sy, All (%) (Cycle 1 n = 20): 3 (15) patients (%)
- Tumor lysis sy, Grade ≥3 (Cycle 1 n = 20): 3 patients
- Vomiting, All (%) (Cycle 1 n = 20): 9 (45) patients (%)
- Dehydration, All (%) (Cycle 2 n = 10): 1 (10) patients (%)
- Diarrhea, All (%) (Cycle 2 n = 10): 7 (70) patients (%)
- Diarrhea, Grade ≥3 (Cycle 2 n = 10): 1 patients
- Fatigue, All (%) (Cycle 2 n = 10): 2 (20) patients (%)
- Fatigue, Grade ≥3 (Cycle 2 n = 10): 1 patients
- Hyperbilirubinemia, All (%) (Cycle 2 n = 10): 1 (10) patients (%)
- Hyperkalemia, All (%) (Cycle 2 n = 10): 1 (10) patients (%)
- Hyperphosphatemia, All (%) (Cycle 2 n = 10): 1 (10) patients (%)
- Hypoalbuminemia, All (%) (Cycle 2 n = 10): 1 (10) patients (%)
- Hypotension, All (%) (Cycle 2 n = 10): 2 (20) patients (%)
- Increased ALT, All (%) (Cycle 2 n = 10): 1 (10) patients (%)
- Increased AST, All (%) (Cycle 2 n = 10): 1 (10) patients (%)
- Nausea, All (%) (Cycle 2 n = 10): 3 (30) patients (%)
- Pneumonia, All (%) (Cycle 2 n = 10): 1 (10) patients (%)
- Stomatitis, All (%) (Cycle 2 n = 10): 1 (10) patients (%)
- Stomatitis, Grade ≥3 (Cycle 2 n = 10): 1 patients
- Syncope, All (%) (Cycle 2 n = 10): 1 (10) patients (%)
- Syncope, Grade ≥3 (Cycle 2 n = 10): 1 patients
- Vomiting, All (%) (Cycle 2 n = 10): 2 (20) patients (%)
- Anorexia, All (%) (Cycle 3 n = 6): 1 (17) patients (%)
- Cytokine release sy, All (%) (Cycle 3 n = 6): 1 (17) patients (%)
- Cytokine release sy, Grade ≥3 (Cycle 3 n = 6): 1 patients
- Diarrhea, All (%) (Cycle 3 n = 6): 2 (33) patients (%)
- Fatigue, All (%) (Cycle 3 n = 6): 1 (17) patients (%)
- Fatigue, Grade ≥3 (Cycle 3 n = 6): 1 patients
- Hypertension, All (%) (Cycle 3 n = 6): 1 (17) patients (%)
- Increased ALT, All (%) (Cycle 3 n = 6): 1 (17) patients (%)
- Nausea, All (%) (Cycle 3 n = 6): 1 (17) patients (%)
- Vomiting, All (%) (Cycle 3 n = 6): 2 (33) patients (%)
- ≥grade 3 anemia, patients [1]: 25%
- ≥grade 3 febrile neutropenia, patients [1]: 25%
- ≥grade 3 leukopenia, patients [1]: 40%
- ≥grade 3 neutropenia, patients [1]: 10%
- ≥grade 3 thrombocytopenia, patients [1]: 20%
- Grade 1 and 2 diarrhea, patients (in vivo): 70%
